From PubChem BioAssay AID624026 (Broad Institute, 2012)
Where “and” joins values, the source holds several entries; their conditions need not be identical. Identical values can stand only once. Calls of active or inactive are those of the source.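 Rule for the calls: active = compounds reducing cell viability with a fitted AC50 at or below twice their top valid dose; inconclusive = flat curve between -70% and -30%, or an unreliable fit; inactive = the rest.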

Test system: not listed separately
Assay: cytotoxicity in ldlA[mSR-BI] CHO cells, dose response, cytotoxicity control for SR-BI HDL uptake inhibitor project, cell-based, CellTiter-Glo, 24 h, powder samples, set 7 (AID 624026)
Conditions: ldlA[mSR-BI] CHO cells viability, CellTiter-Glo ATP, 24 h; at 35 µM (top of the series)

| SMILES | activity change, negative = cytotoxicity |
| --- | --- |
| CC(C)NC(=O)Nc1ccc2c(c1)CC(=O)N([C@H](C)CO)C[C@@H](C)[C@H](CN(C)S(=O)(=O)c1ccc(Cl)cc1)O2 | 8.33% (inactive) |
| CC(C)NC(=O)Nc1ccc2c(c1)C(=O)N([C@H](C)CO)C[C@H](C)[C@H](CN(C)S(=O)(=O)c1ccc(Cl)cc1)O2 | 1.21% (inactive) |
| CNC[C@@H]1Oc2ccc(NC(=O)NC(C)C)cc2C(=O)N([C@H](C)CO[Si](C)(C)C(C)(C)C)C[C@H]1C | 0.137% (inactive) |
| C[C@@H]1CN([C@H](C)CO)C(=O)c2cc(NC(=O)C3CCCCC3)ccc2O[C@H]1CN(C)C(=O)c1ccc(Cl)cc1 | -8.49% (inactive) |
| CC(C)CN(C(=O)COC(=O)C12CC3CC(CC(O)(C3)C1)C2)C1CCS(=O)(=O)C1 (configuration not stated) | -5.18% (inactive) |
| O=C1C2C3C=CC(C3)C2C(=O)N1c1cccc(N2C(=O)C3C4C=CC(C4)C3C2=O)n1 (configuration not stated) | -1.42% (inactive) |
| CC(C)NC(=O)Nc1ccc2c(c1)C(=O)N([C@@H](C)CO)C[C@@H](C)[C@@H](CN(C)S(=O)(=O)c1ccc(Cl)cc1)O2 | 12.2% (inactive) |
| C[C@@H]1CN([C@H](C)CO)C(=O)c2cc(NC(=O)C3CCCCC3)ccc2O[C@H]1CN(C)S(=O)(=O)c1ccccc1Cl | 2.46% (inactive) |
| C[C@@H]1CN([C@H](C)CO)C(=O)c2cc(NC(=O)Cc3cn(C)c4ccccc34)ccc2O[C@H]1CN(C)S(=O)(=O)c1ccc(F)cc1 | 12.8% (inactive) |
| C[C@H](C(=O)NC1CCCC1)N(C(=O)Cn1nnc(-c2ccc3c(c2)OCO3)n1)C1CCCCC1 | -3.33% (inactive) |
| CC(C)NC(=O)Nc1ccc2c(c1)C(=O)N([C@H](C)CO[Si](C)(C)C(C)(C)C)C[C@@H](C)[C@H](CN(C)S(=O)(=O)c1ccc(Cl)cc1)O2 | 2% (inactive) |
| C[C@@H]1CN([C@H](C)CO)C(=O)c2cc(NC(=O)C3CCCCC3)ccc2O[C@H]1CN(C)S(=O)(=O)c1cccc(Cl)c1 | -12.5% (inactive) |
| C[C@@H]1CN([C@H](C)CO)C(=O)c2cc(NC(=O)C3CCCCC3)ccc2O[C@H]1CN(C)S(=O)(=O)c1ccc(Cl)cc1 | 0.365% (inactive) |
| COc1c(NC(=O)C(=O)c2ccc(OCCN3CCOCC3)c3ccccc23)cc(C(C)(C)C)cc1NS(C)(=O)=O | -29.9% (inactive) |
| O=C(O)CC(C(=O)Nc1cccc(C(F)(F)F)c1)C1CCCO1 (configuration not stated) | 1.15% (inactive) |
| C[C@@H]1CN([C@H](C)CO)C(=O)c2cc(NC(=O)Cc3cn(C)c4ccccc34)ccc2O[C@H]1CN(C)S(=O)(=O)c1ccc(Cl)cc1 | -1.59% (inactive) |
| CC(C)NC(=O)Nc1ccc2c(c1)C(=O)N([C@H](C)CO)C[C@@H](C)[C@@H](CN(C)S(=O)(=O)c1ccc(Cl)cc1)O2 | 4.21% (inactive) |
| CC(C)NC(=O)Nc1ccc2c(c1)C(=O)N([C@@H](C)CO)C[C@@H](C)[C@H](CN(C)S(=O)(=O)c1ccc(Cl)cc1)O2 | 0.1% (inactive) |
| COCC(=O)N1CCc2cc(-c3csc(NC(=O)c4cc(OC)cc(OC)c4)n3)ccc21 | 3.29% (inactive) |
| C[C@@H]1CN([C@H](C)CO)C(=O)c2cc(NC(=O)C3CCOCC3)ccc2O[C@H]1CN(C)S(=O)(=O)c1ccc(Cl)cc1 | -3.51% (inactive) |
| Cc1ccc(OCc2cc(C(=O)N3CCCC(O)C3)no2)cn1 (configuration not stated) | -3.58% (inactive) |
| Cc1noc(C)c1S(=O)(=O)Nc1ccc2c(c1)C(=O)N([C@H](C)CO)C[C@@H](C)[C@H](CN(C)S(=O)(=O)c1ccc(Cl)cc1)O2 | 2.07% (inactive) |
| CC(C)NC(=O)Nc1ccc2c(c1)C(=O)N([C@H](C)CO)C[C@@H](C)[C@H](CN(C)S(=O)(=O)c1ccc(Cl)cc1)O2 | 10.4% (inactive) and 2.32% (inactive) |
| CC(C)NC(=O)Nc1cccc2c1O[C@@H](CN(C)S(=O)(=O)c1ccc(Cl)cc1)[C@H](C)CN([C@H](C)CO)C2=O | 3.81% (inactive) |
| CC(C)NC(=O)Nc1ccc2c(c1)C(=O)N([C@@H](C)CO)C[C@H](C)[C@H](CN(C)S(=O)(=O)c1ccc(Cl)cc1)O2 | 6.98% (inactive) |
| COc1ccc2c(c1)CC(C1(O)C(=O)N(C)c3ccccc31)C2=O (configuration not stated) | -4.38% (inactive) |
| CCOc1cc2c3c(c1)C1(C(=O)N3C(C)(C)CC2C)C(C#N)=C(N)N2C(=C1C#N)Nc1ccccc12 (configuration not stated) | -18.2% (inactive) |
| C[C@@H]1CN([C@H](C)CO[Si](C)(C)C(C)(C)C)C(=O)c2cc(NC(=O)C3CCCCC3)ccc2O[C@H]1CN(C)C(=O)c1ccc(Cl)cc1 | 1.39% (inactive) |

Test system: ldlA[mSR-BI] CHO cells viability, CellTiter-Glo ATP, 24 h
Assay: as above
Conditions: not given

| SMILES | AC50 |
| --- | --- |
| C=CCOC(=O)N(C)C[C@@H]1Oc2ccc(NC(=O)NC(C)C)cc2C(=O)N([C@H](C)CO[Si](C)(C)C(C)(C)C)C[C@H]1C | 21.6 µM |
| C=CCOC(=O)N(C)C[C@@H]1Oc2ccc(N)cc2C(=O)N([C@H](C)CO[Si](C)(C)C(C)(C)C)C[C@H]1C | > 70 µM (inactive) |
| C=CCOC(=O)N(C)C[C@@H]1Oc2ccc(NC(=O)OCC3c4ccccc4-c4ccccc43)cc2C(=O)N([C@H](C)CO)C[C@H]1C | > 70 µM (inactive) |
| CC(C)NC(=O)Nc1ccc2c(c1)C(=O)N([C@H](C)CO)C[C@@H](C)[C@H](CN(C)S(=O)(=O)c1ccc(Cl)cc1)O2 | > 70 µM (inactive) |
